The term hepatocyte CLint denotes the capacity of the preparation to metabolise the compound, expressed as a volume cleared per time. Low readings indicate slow turnover, high ones rapid turnover. For orientation: inhibition means the percentage by which the read-out fell short of the control. By Ki is commonly meant the equilibrium dissociation constant of an inhibitor or competing ligand from its target.

Experimental findings from US20260315487A1, “IKK-ALPHA INHIBITORS” (Cancer Research Technology Limited, priority 2023, published 2026) are described below.

Where two headings read alike, the source gives them in different places. Bounds are passed on as bounds.

Data set [1] is described as follows: mouse hepatocyte clearance (cryopreserved pooled mouse CD1 hepatocytes). The class given is in vitro ADME. The conditions noted are these: mouse, hepatocytes; 1 μM; 0.5×10^6 cells/mL; 37° C. The procedure:
Pharmacokinetic studies were contracted to Sygnature Discovery Limited. Intrinsic clearance and half life were determined using cryopreserved pooled mouse CD1 hepatocytes. Test compounds were analysed at 1 μM in Williams Media E buffer (0.01 % DMSO) at a cell density of 0.5×10^6 cells mL^−1 . Cells were incubated at 37° C. for one hour with shaking and compound depletion was measured by LC-MS/MS at six timepoints (0.25, 5, 10, 20, 40, and 60 minutes).

The target of another data set is T1, MKK7 P (Homo sapiens, UniProt O14733).
T1 sequence (O14733 1-419): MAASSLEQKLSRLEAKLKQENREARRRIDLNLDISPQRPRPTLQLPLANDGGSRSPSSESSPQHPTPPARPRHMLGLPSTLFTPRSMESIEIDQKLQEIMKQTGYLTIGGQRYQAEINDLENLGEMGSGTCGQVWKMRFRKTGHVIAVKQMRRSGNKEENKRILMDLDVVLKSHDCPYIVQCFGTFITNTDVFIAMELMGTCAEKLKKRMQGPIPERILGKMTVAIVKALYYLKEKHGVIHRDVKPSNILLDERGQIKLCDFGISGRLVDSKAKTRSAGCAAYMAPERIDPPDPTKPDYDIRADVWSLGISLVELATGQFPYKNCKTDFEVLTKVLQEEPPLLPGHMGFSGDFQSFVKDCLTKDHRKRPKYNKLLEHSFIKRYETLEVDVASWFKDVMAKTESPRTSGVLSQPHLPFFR
Briefly: kinome profiling at 1 μM, MKK7. Format: biochemical. From the text: (§1) We profiled three compounds from the series across the kinome (FIG. 11). […] To identify the structural drivers for CDK inhibition, we obtained X-ray crystal structures of 5 y and 6 g SU1336 and SU1349 with CDK-2 (FIG. 12A) to potentially identify possible routes towards introducing selectivity for IKKα over the CDK enzymes as well as IKKβ. […] All three derivatives form complexes with CDK2 with the pyrrolo[2,3 -b]pyridine H-bonding to GK+3 (Leu 83 ) and the aminoindazole projected towards the G-loop (FIG. 12A), forming H-bonds with Glu 51 and Lys 33 at the back of the pocket. The adoption of the 4 SU1253 -type orientation, rather than the flipped pose observed in IKKα, is probably facilitated by Tr-stacking between the aminoindazole and the GK residue, which in the CDKs is Phe, rather than Met. […] For 6 g SU1349, the hydrophobic pendant benzyloxy group points out into solvent, but can form face-to-edge Tr-Tr interactions with Phe 82 and His 84 from the hinge. Exchanging the hydrophobic pendant benzyloxy group for the morpholinoethyl-containing substituent in 5 y SU1336 removes any direct interaction with these hinge residues, preferring to sit in a more solvent-exposed position, as befits a basic side chain that will be protonated at physiological pH (FIG. 12B).

A further data set has as its system panel of kinases. Briefly: kinome profiling at 1 μM. Format: biochemical.
Text: as §1
(§2) Black, 4 SU1253; grey, 5 r SU1261; diagonal stripes, 6 g SU1349. […] All tested compounds (4 SU1253, 5 r SU1261 and 6 g SU1349 ) inhibited CDK5 and CDK9 with >80 %.

In the next data set the target is T2, IKKβ (Homo sapiens, UniProt O14920).
T2 sequence (O14920 1-756): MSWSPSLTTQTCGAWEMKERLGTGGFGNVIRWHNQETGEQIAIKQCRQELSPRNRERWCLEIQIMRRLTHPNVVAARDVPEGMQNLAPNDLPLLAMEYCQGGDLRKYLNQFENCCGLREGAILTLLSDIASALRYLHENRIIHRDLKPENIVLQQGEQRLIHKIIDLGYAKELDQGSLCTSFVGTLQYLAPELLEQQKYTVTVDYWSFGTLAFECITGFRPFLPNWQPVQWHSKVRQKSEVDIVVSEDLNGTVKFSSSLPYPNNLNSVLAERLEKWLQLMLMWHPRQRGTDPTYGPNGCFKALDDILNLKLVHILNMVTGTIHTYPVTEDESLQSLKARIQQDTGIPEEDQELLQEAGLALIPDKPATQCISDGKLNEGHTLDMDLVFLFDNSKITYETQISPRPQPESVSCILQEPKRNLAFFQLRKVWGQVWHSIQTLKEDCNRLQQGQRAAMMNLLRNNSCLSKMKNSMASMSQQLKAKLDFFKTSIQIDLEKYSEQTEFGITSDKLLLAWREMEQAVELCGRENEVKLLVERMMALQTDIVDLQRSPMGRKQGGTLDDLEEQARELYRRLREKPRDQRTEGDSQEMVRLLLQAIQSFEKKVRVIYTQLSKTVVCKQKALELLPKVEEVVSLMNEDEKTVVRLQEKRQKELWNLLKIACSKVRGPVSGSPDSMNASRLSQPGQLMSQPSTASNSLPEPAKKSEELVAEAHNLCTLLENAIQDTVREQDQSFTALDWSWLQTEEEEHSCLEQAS
Description: in-house DELFIA kinase assay, IKKβ. The class given is biochemical.

The target in the next data set is CDK5 (Homo sapiens, UniProt Q00535). Description: kinome profiling at 1 μM, CDK5. Format: biochemical. The conditions noted are these: read-out: % inhibition of CDK5.
Text: as §1, §2

CDK5, sequence (Q00535 whole entry, species assumed): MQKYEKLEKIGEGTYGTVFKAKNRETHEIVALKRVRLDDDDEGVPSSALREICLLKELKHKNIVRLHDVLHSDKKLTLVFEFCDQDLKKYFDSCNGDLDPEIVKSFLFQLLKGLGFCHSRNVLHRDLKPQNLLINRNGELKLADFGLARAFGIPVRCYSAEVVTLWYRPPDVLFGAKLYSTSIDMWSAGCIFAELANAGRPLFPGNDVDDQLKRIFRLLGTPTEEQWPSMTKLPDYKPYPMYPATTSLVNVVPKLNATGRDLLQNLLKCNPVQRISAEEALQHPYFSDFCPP
CDK5, sequence (Q15078 99-307 partner limits assumed, species assumed): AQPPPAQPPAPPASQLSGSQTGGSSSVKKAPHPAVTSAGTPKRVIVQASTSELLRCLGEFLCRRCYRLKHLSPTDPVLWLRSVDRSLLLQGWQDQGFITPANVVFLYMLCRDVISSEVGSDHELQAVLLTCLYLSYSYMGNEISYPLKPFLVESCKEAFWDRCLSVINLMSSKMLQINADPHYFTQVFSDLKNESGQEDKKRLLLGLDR

In data set [1], `Nc1n[nH]c2ccc(-c3ccnc4[nH]c(-c5cccc(OCc6ccccc6)c5)cc34)cc12` [5r SU1261, 5-(2-(3-(benzyloxy)phenyl)-1 H-pyrrolo[2,3-b]pyridin-4-yl)-1 H-indazol-3-amine] registered a hepatocyte CLint of 38 µL/min/1e6 cells. Besides, the inhibition at 1 µM at MKK7 P (read-out: % inhibition of MKK7) and at CDK5 (1 μM) was greater than 80% in each case. Further, the “number of kinases inhibited by >80 %” value with panel of kinases (panel of 231 kinases) and with panel of kinases (panel of 253 kinases (FIG. 11)) was 10 kinases throughout. In addition, the “IKKβ inhibition, in words” value at IKKβ is recorded as “lowest activity against IKKβ”. This compound showed a Ki at IKKβ of 680 nM.

In turn, `Nc1n[nH]c2ccc(-c3ccnc4[nH]c(-c5ccnc(OCc6ccccc6)c5)cc34)cc12` [6g SU1349, 5-(2-(2-(Benzyloxy)pyridin-4-yl)-1 H-pyrrolo[2,3-b]pyridin-4-yl)-1 H-indazol-3-amine] returned an intrinsic metabolic clearance (hepatocyte CLint) in data set [1] of 27 µL/min/1e6 cells. In addition, on MKK7 P (1 μM, compared with 5r SU1261), the “off-target inhibition of MKK7, in words” value is given as “significantly reduced off-target inhibition”. The “number of kinases inhibited by >80 %” value in the data set with panel of kinases (panel of 253 kinases (FIG. 11)) was found to be 4 kinases. In addition, the inhibition constant Ki at IKKβ is 3350 nM. In addition, the inhibition at 1 µM on CDK5 is greater than 80%.
